Results: patent US20230165252A1, “ACTIVE COMPOUND COMBINATIONS” (Bayer Aktiengesellschaft, priority 2020, published 2023)
Like-named read-outs stand apart in the source and are kept apart here.

Columns and labels:
Type in all cases: cell-based
Cercospora beticola = assay: in vitro-Test with Cercospora beticola (microtiter growth inhibition); settings: Cercospora beticola, read-out: Efficacy %
Method in brief: (§1)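 Growth inhibition in potato dextrose broth inoculated with spores or mycelium, over solvent-evaporated compound films, was followed photometrically at 620 nm across 3-5 days at 20° C. Synergy for mixtures is claimed when observed efficacy exceeds the expected value E.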

Alternaria alternate = assay: in vitro-Test with Alternaria alternate (microtiter growth inhibition); settings: Alternaria, applied alone, read-out: Efficacy
Method in brief: as §1

Fusarium culmorum = assay: in vitro-Test with Fusarium culmorum (microtiter growth inhibition); settings: Fusarium culmorum, read-out: Efficacy
Method in brief: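 Fungal spores or mycelium in liquid potato dextrose medium are incubated on wells pre-coated with evaporated test material at 20° C. and 85% humidity. Absorbance at 620 nm is taken initially and 3-5 days post-application; efficacy (%) is scaled from untreated control growth (0%) to no growth (100%).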

Parastagonospora nodorum = assay: in vitro-Test with Parastagonospora nodorum (microtiter growth inhibition); settings: Parastagonospora nodorum, compound alone, read-out: Efficacy %
Method in brief: as §1

Cordana musae = assay: in vitro-Test with Cordana musae (microtiter growth inhibition); settings: Neocordana musae, single substance, read-out: Efficacy
Method in brief: as §1

[1] = test system: Colletotrichum lindemuthianum; assay: in vitro-Test with Colletotrichum lindemuthianum (microtiter growth inhibition); settings: Colletotrichum lindemuthianum, read-out: Efficacy %
Protocol: The degree of efficacy expressed in % is denoted: 0% means an efficacy, which corresponds to that of the control, while an efficacy of 100% means that no disease is observed.
If the actual fungicidal activity exceeds the calculated value, then the activity of the combination is super-additive, i.e. a synergistic effect exists. In this case, the efficacy, which was actually observed, must be greater than the value for the expected efficacy (E), that was calculated from the abovementioned formula.
Example: In Vitro-Test with Fungal Microorganisms
Wells of 96-well microtiter plates are filled with 10 μl of a preparation of test compound or compound combination in methanol+emulsifier alkylaryl-polyglycol-ether. Thereafter, the solvent is evaporated in a hood. At the next step, 100 μl of liquid potato dextrose medium is given into each well, that has been amended with an appropriate concentration of spores or mycelium suspension of the test fungus.
With the aid of a photometer, the extinction in all wells is measured at the wavelength of 620 nm.
The microtiter plates are incubated at 20° C. and 85% relative humidity. The inhibition of growth is determined again photometrically 3-5 days after the application. Efficacy is calculated in relation to the untreated control, 0% efficacy means fungal growth as high as in untreated control while 100% efficacy means no fungal growth is measured.

Diaporthe citri = assay: in vitro-Test with Diaporthe citri (microtiter growth inhibition); settings: Diaporthe citri, read-out: Efficacy; for inhibition of growth at 0.02 ppm: 0.020 ppm
Method in brief: as §1

[2] = test system: Ustilago segetum var. avenae; assay: in vitro-Test with Ustilago segetum var. avenae (microtiter growth inhibition); settings: single compound, read-out: Efficacy %
Method in brief: as §1

Cc1ccc(C(F)(F)CNC(=O)c2c(Oc3cccc(C4CC4)c3F)nnc(Cl)c2C)cc1C [Compound I-749, 6-chloro-3-(3-cyclopropyl-2-fluorophenoxy)-N-[2-(3,4-dimethylphenyl)-2,2-difluoroethyl]-5-methylpyridazine-4-carboxamide]
11%: inhibition of growth at 0.1 ppm (Fusarium culmorum; 0.1 ppm)
8%: inhibition of growth at 0.1 ppm (Cercospora beticola; alone, 0.1 ppm) | inhibition of growth at 0.1 ppm (Cercospora beticola; applied alone at 0.1 ppm)
64%: inhibition of growth at 0.02 ppm (Cordana musae; 0.020 ppm)
1%: inhibition of growth at 0.004 ppm ([1]; applied alone at 0.004 ppm) | inhibition of growth at 0.004 ppm ([2]; 0.004 ppm)
22%: inhibition of growth at 0.5 ppm (Cercospora beticola; alone, 0.5 ppm) | inhibition of growth at 0.5 ppm (Cercospora beticola; applied alone at 0.5 ppm)
14%: inhibition of growth at 0.02 ppm (Alternaria alternate; 0.020 ppm)
19%: inhibition of growth at 0.02 ppm ([1]; applied alone at 0.020 ppm)
24%: inhibition of growth at 0.1 ppm (Alternaria alternate; 0.1 ppm)
18%: inhibition of growth at 0.5 ppm (Fusarium culmorum; 0.5 ppm)
10%: inhibition of growth at 0.02 ppm (Fusarium culmorum; 0.020 ppm)
100%: inhibition of growth at 0.5 ppm (Alternaria alternate; 0.5 ppm) | inhibition of growth at 0.5 ppm (Parastagonospora nodorum; 0.5 ppm) | inhibition of growth at 0.1 ppm (Cordana musae; 0.1 ppm) | inhibition of growth at 0.5 ppm (Cordana musae; 0.5 ppm) | inhibition of growth at 0.1 ppm ([1]; applied alone at 0.1 ppm) | inhibition of growth at 0.5 ppm ([1]; applied alone at 0.5 ppm) | inhibition of growth at 0.5 ppm (Diaporthe citri) | inhibition of growth at 0.5 ppm (Diaporthe citri; applied alone)
0%: inhibition of growth at 0.004 ppm (Cercospora beticola; alone, 0.004 ppm) | inhibition of growth at 0.02 ppm (Cercospora beticola; alone, 0.020 ppm) | inhibition of growth at 0.004 ppm (Cercospora beticola; applied alone at 0.004 ppm) | inhibition of growth at 0.02 ppm (Cercospora beticola; applied alone at 0.020 ppm) | inhibition of growth at 0.004 ppm (Alternaria alternate; 0.004 ppm) | inhibition of growth at 0.004 ppm (Fusarium culmorum; 0.004 ppm) | inhibition of growth at 0.004 ppm (Parastagonospora nodorum; 0.004 ppm) | inhibition of growth at 0.02 ppm (Parastagonospora nodorum; 0.020 ppm) | inhibition of growth at 0.004 ppm (Cordana musae; 0.004 ppm) | inhibition of growth at 0.004 ppm (Diaporthe citri) | inhibition of growth at 0.02 ppm (Diaporthe citri) | inhibition of growth at 0.1 ppm (Diaporthe citri) | inhibition of growth at 0.004 ppm (Diaporthe citri; applied alone) | inhibition of growth at 0.02 ppm (Diaporthe citri; applied alone) | inhibition of growth at 0.1 ppm (Diaporthe citri; applied alone) | inhibition of growth at 0.02 ppm ([2]; 0.020 ppm) | inhibition of growth at 0.1 ppm ([2]; 0.1 ppm) | inhibition of growth at 0.5 ppm ([2]; 0.5 ppm)
92%: inhibition of growth at 0.1 ppm (Parastagonospora nodorum; 0.1 ppm)
